According to patent US20160038448A1, “THE INHIBITION OF THE TOXIC EFFECTS OF ISLET AMYLOID FORMATION BY FLURBIPROFEN AND FLURBIPROFEN DERIVATIVES” (The Research Foundation for the State University of New York, priority 2013, published 2016):
“Also recorded” adds a separate entry of the source.

Assays:
Type in all cases: biochemical
human IAPP = target: T1, human IAPP (Homo sapiens, UniProt P10997); test: Fluorescence detected thioflavin-T assay of the time course of amyloid formation; settings: pH 7.4, 25° C.
T1 construct: Mature, fully processed, Amylin is 37 residues in length, contains a disulfide bond between residues 2 and 7; made in house; host or cells: chemical solid-phase peptide synthesis (Fmoc), no expression host
T1 sequence (P10997 34-70 limits assumed): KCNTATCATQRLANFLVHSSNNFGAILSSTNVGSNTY
Procedure: Peptides were first dissolved in 100% hexafluoroisopropanol (HFIP) at a concentration 1.6 mM and then filtered to remove any preformed amyloid aggregates. For thioflavin-T fluorescence assays, aliquots were lyophilized and redissolved in pH 7.4, 20 mM Tris-HCl buffer at the desired concentration. Aspirin and Ketoprofen were prepared in 100% dimethyl sulfoxide (DMSO).
Solutions were prepared by adding pH 7.4, 20 mM Tris buffer and thioflavin-T to lyophilized dry peptides for a final peptide concentration of […]. For the studies of Aspirin and Ketoprofen, 0.25% DMSO was present in the solution. Measurements were made at 25° C. using a Beckman Coulter DTX880 plate reader without stirring. An excitation filter of 430 nm and an emission filter of 485 nm were used. To test disaggregate activity of Aspirin, peptide was first incubated in low-binding 96-wells plate and monitored by plate reader to ensure the formation of amyloid fibrils.
A mixture of flurbiprofen (1-20 parts) and human IAPP (1 part) was monitored by fluorescence detected thioflavin-T assays. The assays monitored the time course of amyloid formation (amount vs time) in the presence and absence of flurbiprofen.
A mixture of OH-flurbiprofen and human IAPP were monitored by fluorescence detected thioflavin-T assays. Three different concentrations (1:1 ratio, 1:10 ratio and 1:20 ratio of IAPP to OH-flurbiprofen) were tested against human IAPP without any added OH-flurbiprofen. The assays monitored the time course of amyloid formation (amount vs time) in the presence and absence of a flurbiprofen derivative.
Three different mixtures of NSAIDs (20 parts) and human IAPP (1 parts) were compared to each other and human IAPP alone by fluorescence detected thioflavin-T assays. The assays monitored the time course of amyloid formation (amount vs time) in the presence and absence of aspirin, naproxen and flurbiprofen.

human IAPP (amylin) = target: T2, human IAPP (amylin) (Homo sapiens, UniProt P10997); test: Transmission electron microscopy of amyloid fibrils; settings: 20-fold excess of NSAID over human IAPP, end of kinetic experiment
T2 construct: Mature, fully processed, Amylin is 37 residues in length, contains a disulfide bond between residues 2 and 7; made in house; host or cells: chemical solid-phase peptide synthesis (Fmoc), no expression host
T2 sequence (P10997 34-70 limits assumed): T1 sequence (P10997 34-70 limits assumed)
Procedure: TEM was performed at the Life Science Microscopy Center at Stony Brook University. Aliquots were removed from the same solutions that were used for the fluorescence measurements. 5 μL of peptide solution was placed on carbon-coated Formvar 300 mesh copper grid for one minute and then negatively stained with saturated uranyl acetate for another one minute.

human amylin = target: T3, human amylin (Homo sapiens, UniProt P10997); test: Right angle light scattering assay (RALS) without thioflavin-T; settings: 20-fold excess of aspirin (320 μM), amylin 16 μM, no thioflavin-T
T3 construct: Mature, fully processed, Amylin is 37 residues in length, contains a disulfide bond between residues 2 and 7; made in house; host or cells: chemical solid-phase peptide synthesis (Fmoc), no expression host
T3 sequence (P10997 34-70 limits assumed): T1 sequence (P10997 34-70 limits assumed)
Procedure: Solutions were prepared by adding pH 7.4, 20 mM Tris buffer without thioflavin-T to lyophilized dry peptides for a final peptide concentration of 16 […] used an excitation and emission wavelength of 500 nm.

[1] = target: T4, pre-formed human amylin amyloid fibrils (Homo sapiens, UniProt P10997); test: Disaggregation of pre-formed amylin amyloid fibrils (thioflavin-T and TEM); settings: 20-fold excess added after amyloid formation was complete, up to 48 hours
T4 construct: Mature, fully processed, Amylin is 37 residues in length, contains a disulfide bond between residues 2 and 7; made in house; host or cells: chemical solid-phase peptide synthesis (Fmoc), no expression host
T4 sequence (P10997 34-70 limits assumed): T1 sequence (P10997 34-70 limits assumed)
Procedure: Solutions were prepared by adding pH 7.4, 20 mM Tris buffer and thioflavin-T to lyophilized dry peptides for a final peptide concentration of 16 M. For the studies of Aspirin and Ketoprofen, 0.25% DMSO was present in the solution. Measurements were made at 25° C. using a Beckman Coulter DTX880 plate reader without stirring. An excitation filter of 430 nm and an emission filter of 485 nm were used.

## CC(=O)Oc1ccccc1C(=O)O [Aspirin]
Human IAPP; 20 to 1 ratio of NSAID to human IAPP
  inhibition of amyloid formation by human IAPP (amylin): do not inhibit amylin amyloid formation; also recorded: no inhibition of amyloid; also recorded: does not inhibit amyloid formation by human amylin
Human IAPP; amylin 16 μM, aspirin up to 20-fold excess, 0.25% DMSO
  final thioflavin-T intensity: no detectable effect on the final thioflavin-T intensity
Human IAPP; amylin 16 μM, aspirin up to a 20-fold excess
  rate of amyloid formation as judged by T50: no detectable effect on the rate of amyloid formation
Human IAPP (amylin)
  amyloid fibrils by TEM in presence of NSAID: no changes in amyloid formation
Human IAPP (amylin); listed as aspirin
  amyloid fibrils by TEM in presence of NSAID: Extensive matts of fibrils; also recorded: does not inhibit IAPP amyloid formation
Human amylin
  aggregation curves by right angle light scattering: does not inhibit amyloid formation by human amylin
[1]
  disaggregation of pre-formed amylin amyloid fibrils: unable to disassemble pre-formed amylin amyloid; also recorded: does not disaggregate pre-formed human amylin amyloid fibrils
[1]; listed as aspirin
  disaggregation of pre-formed amylin amyloid fibrils: does not disaggregate amylin amyloid; also recorded: no effect on the thioflavine-T signal
